Laboratory results published in patent US20230055961A1, “PENTAFLUOROBENZENESULFONAMIDE DERIVATIVES AND USES THEREOF” (Dunad Therapeutics Ltd., priority 2019, published 2023).

Columns and labels:
Type in all cases: biochemical
BTK = BTK (Homo sapiens, UniProt Q06187); experiment: Enzyme kinetic analysis of BTK inhibition (time-dependent inhibition); details: 0.1 nM BTK, 500 μM ATP, 60-700 nM compound
Excerpt: One of ordinary skill in the art will recognize that this is consistent with the irreversible inhibition of BTK by Compound 5-1.

FGFR1 = FGFR1 (Homo sapiens, UniProt P11362); experiment: In vitro kinase inhibition studies (Table 9), FGFR1
FGFR1, sequence (P11362 22-822, species assumed): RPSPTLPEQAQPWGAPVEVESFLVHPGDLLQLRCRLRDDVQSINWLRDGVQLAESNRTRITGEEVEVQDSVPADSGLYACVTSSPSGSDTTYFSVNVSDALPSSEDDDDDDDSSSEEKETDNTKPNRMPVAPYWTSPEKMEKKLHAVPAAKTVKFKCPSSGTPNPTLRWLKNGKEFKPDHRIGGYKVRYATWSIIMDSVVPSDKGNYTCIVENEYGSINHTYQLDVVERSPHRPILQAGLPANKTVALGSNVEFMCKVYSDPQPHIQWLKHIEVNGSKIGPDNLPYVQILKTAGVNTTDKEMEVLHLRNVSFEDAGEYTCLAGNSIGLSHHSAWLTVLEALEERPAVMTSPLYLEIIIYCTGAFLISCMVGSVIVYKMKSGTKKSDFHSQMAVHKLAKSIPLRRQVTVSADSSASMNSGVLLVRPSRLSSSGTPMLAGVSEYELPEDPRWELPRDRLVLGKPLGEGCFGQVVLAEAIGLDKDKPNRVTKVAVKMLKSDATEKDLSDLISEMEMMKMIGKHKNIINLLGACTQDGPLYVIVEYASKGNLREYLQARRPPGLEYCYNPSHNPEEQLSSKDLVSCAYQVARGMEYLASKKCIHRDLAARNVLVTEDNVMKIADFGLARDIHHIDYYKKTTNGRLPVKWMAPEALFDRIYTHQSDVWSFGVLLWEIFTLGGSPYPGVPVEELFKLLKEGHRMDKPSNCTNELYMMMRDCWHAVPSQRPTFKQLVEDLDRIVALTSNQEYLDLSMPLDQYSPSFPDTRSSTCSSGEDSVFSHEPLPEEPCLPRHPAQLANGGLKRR

FGFR4 = FGFR4 (Homo sapiens, UniProt P22455); experiment: In vitro kinase inhibition studies (Table 9), FGFR4
FGFR4, sequence (P22455 22-802, species assumed): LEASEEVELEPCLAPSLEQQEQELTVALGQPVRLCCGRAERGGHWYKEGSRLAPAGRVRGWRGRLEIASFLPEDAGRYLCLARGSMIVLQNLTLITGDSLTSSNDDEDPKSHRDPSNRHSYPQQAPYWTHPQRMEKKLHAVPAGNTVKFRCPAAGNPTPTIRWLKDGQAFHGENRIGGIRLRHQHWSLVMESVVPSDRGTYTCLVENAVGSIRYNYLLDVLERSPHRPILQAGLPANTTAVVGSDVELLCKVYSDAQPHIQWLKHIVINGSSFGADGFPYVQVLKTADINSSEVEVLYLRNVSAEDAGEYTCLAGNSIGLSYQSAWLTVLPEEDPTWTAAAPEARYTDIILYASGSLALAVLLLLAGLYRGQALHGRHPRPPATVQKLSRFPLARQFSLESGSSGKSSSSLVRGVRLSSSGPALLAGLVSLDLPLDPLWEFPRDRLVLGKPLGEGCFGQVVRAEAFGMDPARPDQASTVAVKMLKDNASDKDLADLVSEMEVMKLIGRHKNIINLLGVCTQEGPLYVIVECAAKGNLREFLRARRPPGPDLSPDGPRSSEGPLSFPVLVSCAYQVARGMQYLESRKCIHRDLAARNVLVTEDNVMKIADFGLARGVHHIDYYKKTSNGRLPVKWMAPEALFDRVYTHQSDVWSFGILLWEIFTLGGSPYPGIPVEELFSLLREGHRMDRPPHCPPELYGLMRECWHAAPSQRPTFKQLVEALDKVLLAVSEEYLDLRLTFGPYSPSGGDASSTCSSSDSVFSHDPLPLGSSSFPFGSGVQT

BLK = BLK (Homo sapiens, UniProt P51451); experiment: In vitro kinase inhibition studies (Table 13), BLK
BLK, sequence (P51451 whole entry, species assumed): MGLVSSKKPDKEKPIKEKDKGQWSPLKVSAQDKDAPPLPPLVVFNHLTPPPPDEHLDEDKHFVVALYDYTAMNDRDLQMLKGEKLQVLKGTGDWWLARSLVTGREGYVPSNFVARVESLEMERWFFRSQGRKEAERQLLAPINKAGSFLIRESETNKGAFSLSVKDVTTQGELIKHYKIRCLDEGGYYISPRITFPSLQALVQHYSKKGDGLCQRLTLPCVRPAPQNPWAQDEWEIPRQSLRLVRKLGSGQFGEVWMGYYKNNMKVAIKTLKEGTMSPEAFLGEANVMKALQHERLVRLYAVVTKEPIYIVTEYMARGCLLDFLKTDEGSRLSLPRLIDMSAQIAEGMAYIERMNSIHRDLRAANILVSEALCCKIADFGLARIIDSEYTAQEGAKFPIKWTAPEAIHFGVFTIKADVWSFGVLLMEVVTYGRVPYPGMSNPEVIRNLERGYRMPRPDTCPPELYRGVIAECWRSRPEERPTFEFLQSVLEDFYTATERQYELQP

JAK3 = target: T1, JAK3 (Homo sapiens, UniProt P52333); experiment: In vitro kinase inhibition studies (Table 13), JAK3
T1 sequence (P52333 1-1124): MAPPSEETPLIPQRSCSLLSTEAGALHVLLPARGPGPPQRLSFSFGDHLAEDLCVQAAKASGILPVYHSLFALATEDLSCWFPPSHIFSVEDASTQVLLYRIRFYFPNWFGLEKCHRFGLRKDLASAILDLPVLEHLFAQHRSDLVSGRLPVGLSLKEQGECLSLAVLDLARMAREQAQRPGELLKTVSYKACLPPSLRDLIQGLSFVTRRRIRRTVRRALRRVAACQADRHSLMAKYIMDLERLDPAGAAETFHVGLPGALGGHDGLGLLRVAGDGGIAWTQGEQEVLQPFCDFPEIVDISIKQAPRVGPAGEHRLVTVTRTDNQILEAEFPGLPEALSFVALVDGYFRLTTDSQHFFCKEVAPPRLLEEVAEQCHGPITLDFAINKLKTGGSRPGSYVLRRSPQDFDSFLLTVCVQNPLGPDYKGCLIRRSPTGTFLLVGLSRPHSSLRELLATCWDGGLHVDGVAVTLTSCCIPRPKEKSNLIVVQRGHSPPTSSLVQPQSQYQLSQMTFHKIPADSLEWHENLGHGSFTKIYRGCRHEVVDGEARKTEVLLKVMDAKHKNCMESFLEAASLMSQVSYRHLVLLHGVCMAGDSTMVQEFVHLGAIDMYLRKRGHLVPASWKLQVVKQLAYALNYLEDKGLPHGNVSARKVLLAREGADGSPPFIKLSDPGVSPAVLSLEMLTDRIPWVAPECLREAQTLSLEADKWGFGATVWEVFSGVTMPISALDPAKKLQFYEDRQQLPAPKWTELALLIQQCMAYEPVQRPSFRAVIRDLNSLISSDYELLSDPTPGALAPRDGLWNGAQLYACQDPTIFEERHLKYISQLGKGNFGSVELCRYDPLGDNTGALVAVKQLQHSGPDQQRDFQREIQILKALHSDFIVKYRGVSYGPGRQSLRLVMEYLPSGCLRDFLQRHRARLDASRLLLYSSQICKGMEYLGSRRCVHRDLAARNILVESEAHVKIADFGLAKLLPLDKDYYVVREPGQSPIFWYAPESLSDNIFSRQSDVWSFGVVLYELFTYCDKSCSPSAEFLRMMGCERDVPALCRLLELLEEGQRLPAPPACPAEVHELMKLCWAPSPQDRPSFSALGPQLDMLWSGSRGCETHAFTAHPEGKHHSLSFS

MAP2K7 = MAP2K7 (Homo sapiens, UniProt O14733); experiment: In vitro kinase inhibition studies (Table 13), MAP2K7
MAP2K7, sequence (O14733 whole entry, species assumed): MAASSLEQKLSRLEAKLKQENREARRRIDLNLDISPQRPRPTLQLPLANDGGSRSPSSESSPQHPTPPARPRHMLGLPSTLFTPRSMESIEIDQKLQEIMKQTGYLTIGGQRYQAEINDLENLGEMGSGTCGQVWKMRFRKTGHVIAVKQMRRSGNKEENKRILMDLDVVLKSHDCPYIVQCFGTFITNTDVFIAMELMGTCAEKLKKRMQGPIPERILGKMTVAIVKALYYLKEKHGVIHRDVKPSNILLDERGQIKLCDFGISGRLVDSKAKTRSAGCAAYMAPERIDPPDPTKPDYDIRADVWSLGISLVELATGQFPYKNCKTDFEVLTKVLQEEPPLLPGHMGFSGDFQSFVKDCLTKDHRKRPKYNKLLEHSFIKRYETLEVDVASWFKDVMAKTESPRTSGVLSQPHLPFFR

ERBB4 = ERBB4 (Homo sapiens, UniProt Q15303); experiment: In vitro kinase inhibition studies (Table 13), ERBB4
ERBB4, sequence (Q15303 26-1308, species assumed): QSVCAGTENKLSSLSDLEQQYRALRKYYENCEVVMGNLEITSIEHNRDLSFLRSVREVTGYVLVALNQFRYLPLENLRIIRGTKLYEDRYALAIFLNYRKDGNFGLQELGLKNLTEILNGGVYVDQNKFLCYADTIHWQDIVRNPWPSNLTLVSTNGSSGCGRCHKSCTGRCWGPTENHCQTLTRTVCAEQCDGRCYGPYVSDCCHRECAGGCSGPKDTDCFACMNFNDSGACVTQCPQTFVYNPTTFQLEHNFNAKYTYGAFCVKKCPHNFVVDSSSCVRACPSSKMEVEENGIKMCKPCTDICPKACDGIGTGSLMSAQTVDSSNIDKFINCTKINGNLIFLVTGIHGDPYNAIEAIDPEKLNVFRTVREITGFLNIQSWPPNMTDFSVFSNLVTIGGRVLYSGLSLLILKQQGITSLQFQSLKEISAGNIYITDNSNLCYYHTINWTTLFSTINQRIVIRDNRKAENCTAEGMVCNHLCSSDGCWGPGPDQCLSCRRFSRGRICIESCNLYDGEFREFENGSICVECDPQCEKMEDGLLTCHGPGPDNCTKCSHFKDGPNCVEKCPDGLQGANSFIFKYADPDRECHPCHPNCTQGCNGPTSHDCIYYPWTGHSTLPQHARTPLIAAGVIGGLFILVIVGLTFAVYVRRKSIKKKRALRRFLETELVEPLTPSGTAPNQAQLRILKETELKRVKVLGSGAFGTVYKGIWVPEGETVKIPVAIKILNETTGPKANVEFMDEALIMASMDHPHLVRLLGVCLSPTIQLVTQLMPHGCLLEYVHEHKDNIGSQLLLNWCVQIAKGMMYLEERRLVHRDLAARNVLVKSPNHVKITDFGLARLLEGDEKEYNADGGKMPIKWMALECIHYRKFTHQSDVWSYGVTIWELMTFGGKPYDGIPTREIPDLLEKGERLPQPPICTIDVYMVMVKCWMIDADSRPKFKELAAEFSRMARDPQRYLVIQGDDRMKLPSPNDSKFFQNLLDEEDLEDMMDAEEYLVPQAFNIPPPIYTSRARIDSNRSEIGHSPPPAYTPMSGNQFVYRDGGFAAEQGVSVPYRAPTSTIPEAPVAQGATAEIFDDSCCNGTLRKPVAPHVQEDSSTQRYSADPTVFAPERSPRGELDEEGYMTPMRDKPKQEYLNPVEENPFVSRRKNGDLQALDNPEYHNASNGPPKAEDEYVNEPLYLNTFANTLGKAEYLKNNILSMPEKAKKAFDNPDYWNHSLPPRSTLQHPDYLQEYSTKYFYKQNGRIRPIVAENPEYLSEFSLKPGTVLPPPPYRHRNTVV

BTK, sequence (Q06187 whole entry, species assumed): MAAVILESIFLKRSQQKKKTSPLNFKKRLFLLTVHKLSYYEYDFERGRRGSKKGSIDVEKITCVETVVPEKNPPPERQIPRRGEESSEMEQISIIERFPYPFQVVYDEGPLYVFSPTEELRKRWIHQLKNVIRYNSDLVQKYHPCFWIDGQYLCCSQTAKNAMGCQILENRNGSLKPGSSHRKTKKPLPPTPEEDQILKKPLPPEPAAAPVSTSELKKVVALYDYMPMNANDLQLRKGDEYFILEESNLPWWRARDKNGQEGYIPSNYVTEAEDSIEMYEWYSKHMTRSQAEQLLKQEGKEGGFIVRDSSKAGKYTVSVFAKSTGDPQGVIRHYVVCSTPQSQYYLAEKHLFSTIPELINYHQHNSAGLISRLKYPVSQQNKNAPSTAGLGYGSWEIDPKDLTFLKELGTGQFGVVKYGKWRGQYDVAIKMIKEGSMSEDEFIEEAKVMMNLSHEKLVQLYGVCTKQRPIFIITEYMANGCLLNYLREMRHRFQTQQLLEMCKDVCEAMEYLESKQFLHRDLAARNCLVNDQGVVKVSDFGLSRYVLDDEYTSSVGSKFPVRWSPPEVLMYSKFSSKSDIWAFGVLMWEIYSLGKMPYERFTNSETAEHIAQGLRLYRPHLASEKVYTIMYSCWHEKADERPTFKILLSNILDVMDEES

In the case of `Nc1ncnc2c1c(-c1ccc(Oc3ccccc3)cc1)nn2[C@@H]1CCCN(S(=O)(=O)c2c(F)c(F)c(F)c(F)c2F)C1` [Compound 5-1, (R)-1-(1-((perfluorophenyl)sulfonyl)piperidin-3-yl)-3-(4-phenoxyphenyl)-1H-pyrazolo[3,4-d]pyrimidin-4-amine], the “inhibition profile of BTK by enzyme kinetic analysis” value (BTK) is reported as “time-dependent inhibition”, the IC50 (FGFR1) is reported as 10 to 300 nM and the IC50 (FGFR4) is reported as 10 to 300 nM. It also gave an IC50 (BLK) of 100 to 1000 nM, an IC50 (JAK3) of 100 to 1000 nM and an IC50 (MAP2K7) of 10 to 100 nM. The IC50 (ERBB4) was 100 to 1000 nM.
